Measurements from patent publication US20130115271A1, “PREDICTORS OF PHARMACOKINETIC AND PHARMACODYNAMIC DISPOSITION OF CARRIER-MEDIATED AGENTS” (THE UNIVERSITY OF NORTH CAROLINA AT CHAPEL HILL, priority 2010, published 2013).

Legend:
[1] = test system: absolute neutrophil count (ANC); assay: Degree of neutropenia in phase I studies of S-CKD602 and NL-CKD602; type: in vivo, human; details: patients with refractory solid tumors
Source text: (§1) To examine the relationship between S-CKD602 PK and monocytes (MO) in patients, we evaluated the degree of neutropenia and monocytopenia as part of phase I studies of S-CKD602 and non-liposomal CKD-602 (NL-CKD602) in patients with refractory solid tumors. After administration of NL-CKD602, the % decrease at nadir in absolute neutrophil count (ANC) and MO were 86±11% and 87±12%, respectively (P>0.05). For NL-CKD602, the ratio of % decrease in MO to ANC was 1.1±0.4. After administration of S-CKD602, the % decrease at nadir in ANC and MO were 42±30% and 58±34%, respectively (P=0.001). For S-CKD602, the ratio of % decrease in MO to ANC was 2.1±2.0. The relationship between the % decrease in MO at nadir and CL of encapsulated CKD-602 and the release of CKD-602 from S-CKD602 in plasma are presented in FIGS. 3 and 4, respectively. […] The CL of encapsulated drug and release of drug from the liposome in plasma is related to a reduction in MO. […] Consistent with the PK-PD interaction between S-CKD602 and MO we also have reported that decreased DOXIL® CL from cycle 1 to 3 is related to a reduction in MO during each subsequent cycle (Gabizon et al., (1994) Cancer Res. 54: 987-992; La-Beck et al., (2009) J. Clin. Oncol. 27(15S)).

monocytes (MO) = assay: Degree of monocytopenia in phase I studies of S-CKD602 and NL-CKD602; type: in vivo, human; details: patients with refractory solid tumors
Source text: as §1

Structure (SMILES): CC[C@@]1(O)C(=O)OCc2c1cc1n(c2=O)Cc2c-1nc1ccccc1c2CCNC(C)C [NL-CKD602]
- % decrease at nadir in absolute neutrophil count (ANC) [1]: 86±11%
- % decrease at nadir in monocytes (MO) (monocytes (MO)): 87±12%
- ratio of % decrease in MO to ANC (monocytes (MO)): 1.1±0.4
